ChEMBL document CHEMBL1201862, “PubChem BioAssay data set” (2004)
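All cell lines were grown in 96-well plates and treated with compound for 48 hours. The concentration for 50% growth inhibition is given as GI50.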 Active and inactive are the calls of the source. Rule as the data show it: active = GI50 up to about 1.1 µM and inactive = higher.

What was measured:
Assay in all cases: NCI anticancer screen, dose series, 48 h
[1] = test system: HOP-62
[2] = test system: DU-145
[3] = test system: KM12
[4] = test system: RXF 393
[5] = test system: TK-10
[6] = test system: CCRF-CEM
[7] = test system: SK-MEL-2
[8] = test system: NCI-H23
[9] = test system: EKVX
[10] = test system: NCI-H522
[11] = test system: 786-0
[12] = test system: OVCAR-5
[13] = test system: OVCAR-4
[14] = test system: T47D
[15] = test system: SNB-19
[16] = test system: M14
[17] = test system: HCC 2998
[18] = test system: LOX IMVI
[19] = test system: NCI-H226
[20] = test system: A498

SMILES | GI50 [1] | GI50 [2] | GI50 [3] | GI50 [4] | GI50 [5] | GI50 [6] | GI50 [7] | GI50 [8] | GI50 [9] | GI50 [10] | GI50 [11] | GI50 [12] | GI50 [13] | GI50 [14] | GI50 [15] | GI50 [16] | GI50 [17] | GI50 [18] | GI50 [19] | GI50 [20]
CC(C)(C)n1c(=O)n(C(=O)C(Cl)(Cl)Cl)n(C(=O)C(Cl)(Cl)Cl)c1=O | > 100 µM (inactive) | > 100 µM (inactive) | > 100 µM (inactive) | > 100 µM (inactive) | > 100 µM (inactive) | > 100 µM (inactive) | > 100 µM (inactive) | > 100 µM (inactive) | > 100 µM (inactive) | > 100 µM (inactive) | > 100 µM (inactive) | > 100 µM (inactive) | > 100 µM (inactive) | > 100 µM (inactive) | > 100 µM (inactive) | > 100 µM (inactive) | > 100 µM (inactive) | > 100 µM (inactive) | > 100 µM (inactive) | –
O=S(=O)(NC1CCCCC1)c1ccc2c(c1)OCCOCCOCCOCCO2 | > 100 µM (inactive) | > 100 µM (inactive) | > 100 µM (inactive) | – | > 100 µM (inactive) | > 100 µM (inactive) | – | > 100 µM (inactive) | > 100 µM (inactive) | > 100 µM (inactive) | > 100 µM (inactive) | – | – | > 100 µM (inactive) | > 100 µM (inactive) | > 100 µM (inactive) | > 100 µM (inactive) | > 100 µM (inactive) | > 100 µM (inactive) | > 100 µM (inactive)
O=C(/C=C/c1ccc2c(c1)OCO2)Cc1nc2ncccc2[nH]c1=O | 39 µM (inactive) | > 100 µM (inactive) | 61.1 µM (inactive) | 49.4 µM (inactive) | 42.8 µM (inactive) | > 100 µM (inactive) | > 100 µM (inactive) | > 100 µM (inactive) | > 100 µM (inactive) | 60.7 µM (inactive) | 75.3 µM (inactive) | > 100 µM (inactive) | – | 78.3 µM (inactive) | 63.8 µM (inactive) | > 100 µM (inactive) | > 100 µM (inactive) | 8.53 µM (inactive) | – | > 100 µM (inactive)
COc1cc(S(=O)(=O)Nc2ccc(-c3csc(/N=C\c4ccccc4)n3)cc2)ccc1Cl | 41.4 µM (inactive) | 85.1 µM (inactive) | 36.4 µM (inactive) | 1.44 µM (inactive) | – | 17 µM (inactive) | 25.2 µM (inactive) | 60.7 µM (inactive) | 30.3 µM (inactive) | 29.9 µM (inactive) | 81.3 µM (inactive) | > 100 µM (inactive) | 79.4 µM (inactive) | 35.9 µM (inactive) | 31.6 µM (inactive) | 56.1 µM (inactive) | – | 43.9 µM (inactive) | 75.2 µM (inactive) | 37.5 µM (inactive)
S=C(Nc1cc(Cl)c(Cl)cc1Cl)SCc1ccccc1 | 26 µM (inactive) | 39.4 µM (inactive) | 19.8 µM (inactive) | 54.8 µM (inactive) | 24.7 µM (inactive) | – | > 100 µM (inactive) | 20.1 µM (inactive) | 40.7 µM (inactive) | 24.3 µM (inactive) | 38.2 µM (inactive) | 22.8 µM (inactive) | 22.2 µM (inactive) | 32.3 µM (inactive) | 28.6 µM (inactive) | 34.9 µM (inactive) | – | – | 18.5 µM (inactive) | 32.9 µM (inactive)
CCCCC(C(=O)N/N=C/c1ccc([N+](=O)[O-])o1)C(=O)N/N=C/c1ccc([N+](=O)[O-])o1 | 13.1 µM (inactive) | 5.37 µM (inactive) | 3.66 µM (inactive) | 2.07 µM (inactive) | 2.28 µM (inactive) | 0.977 µM (active) | 7.19 µM (inactive) | 2.02 µM (inactive) | 13.4 µM (inactive) | – | 2.11 µM (inactive) | 2.81 µM (inactive) | 1.74 µM (inactive) | 3.46 µM (inactive) | 3.64 µM (inactive) | 3.81 µM (inactive) | – | 1.84 µM (inactive) | 2.37 µM (inactive) | 19.8 µM (inactive)
O=C(Cn1c(=O)oc2ccc(C(=O)c3cccc(Cl)c3)cc21)c1ccccc1 | > 100 µM (inactive) | > 100 µM (inactive) | – | – | > 100 µM (inactive) | > 100 µM (inactive) | 67.3 µM (inactive) | > 100 µM (inactive) | 30.1 µM (inactive) | > 100 µM (inactive) | > 10 µM (inactive) | > 100 µM (inactive) | 12.8 µM (inactive) | 4.53 µM (inactive) | > 10 µM (inactive) | > 100 µM (inactive) | 20.1 µM (inactive) | > 100 µM (inactive) | 40.9 µM (inactive) | 33 µM (inactive)
CC(=O)OCC(C)(COC(C)=O)N1C(=O)C2C3c4ccccc4C(c4ccccc43)C2C1=O (centres undefined) | – | > 100 µM (inactive) | > 100 µM (inactive) | 35.6 µM (inactive) | > 100 µM (inactive) | > 100 µM (inactive) | – | > 100 µM (inactive) | > 100 µM (inactive) | – | > 100 µM (inactive) | > 100 µM (inactive) | – | > 100 µM (inactive) | > 100 µM (inactive) | > 100 µM (inactive) | – | > 100 µM (inactive) | > 100 µM (inactive) | > 100 µM (inactive)
C#CCn1c(=O)ccn(/C(=C/C(=O)OCC)C(=O)OCC)c1=O | 13 µM (inactive) | 13.8 µM (inactive) | 17.4 µM (inactive) | 1.36 µM (inactive) | 1.77 µM (inactive) | 0.61 µM (active) | 15.2 µM (inactive) | 11.9 µM (inactive) | 5.62 µM (inactive) | – | 3.41 µM (inactive) | 7.13 µM (inactive) | 4.62 µM (inactive) | 2.67 µM (inactive) | 19 µM (inactive) | 4.05 µM (inactive) | – | 13.9 µM (inactive) | 18.6 µM (inactive) | 15.1 µM (inactive)
C/C=C/CC(C(=O)OCC)(N(C)C(=O)OC(C)(C)C)S(=O)(=O)c1ccc(C)cc1 (centres undefined) | > 100 µM (inactive) | > 100 µM (inactive) | 48.2 µM (inactive) | > 100 µM (inactive) | > 100 µM (inactive) | > 100 µM (inactive) | 51.6 µM (inactive) | > 100 µM (inactive) | > 100 µM (inactive) | 57.7 µM (inactive) | > 100 µM (inactive) | > 100 µM (inactive) | > 100 µM (inactive) | > 100 µM (inactive) | > 100 µM (inactive) | 50.6 µM (inactive) | – | > 100 µM (inactive) | > 100 µM (inactive) | > 100 µM (inactive)
Clc1cc(-c2ccccc2)nc(Nc2nc3ccccc3[nH]2)n1 | – | > 100 µM (inactive) | 40.2 µM (inactive) | 4.27 µM (inactive) | > 100 µM (inactive) | 6.08 µM (inactive) | > 10 µM (inactive) | 18.2 µM (inactive) | 24 µM (inactive) | 11.4 µM (inactive) | 16.5 µM (inactive) | > 100 µM (inactive) | 15.9 µM (inactive) | > 100 µM (inactive) | 83 µM (inactive) | 23.7 µM (inactive) | – | – | 55.5 µM (inactive) | 33.3 µM (inactive)
O=C(/C=C/c1ccc(Cl)cc1)c1cccs1 | 26.5 µM (inactive) | 40.6 µM (inactive) | 13.9 µM (inactive) | – | 20.8 µM (inactive) | 6.61 µM (inactive) | 24.5 µM (inactive) | > 10 µM (inactive) | 26.6 µM (inactive) | – | 15 µM (inactive) | – | > 10 µM (inactive) | 21 µM (inactive) | 18.2 µM (inactive) | 20.9 µM (inactive) | 18.6 µM (inactive) | 11.4 µM (inactive) | 22.4 µM (inactive) | 23.3 µM (inactive)
CN(C)CCNC(=O)c1cccc2c(NC(CCCNC(=N)N)C(=O)O)c3ccccc3[n+](C)c12 (centres undefined) | 68.1 µM (inactive) | 70.1 µM (inactive) | > 100 µM (inactive) | – | > 100 µM (inactive) | – | > 100 µM (inactive) | > 100 µM (inactive) | > 100 µM (inactive) | – | 71 µM (inactive) | > 100 µM (inactive) | > 100 µM (inactive) | 80.9 µM (inactive) | > 100 µM (inactive) | > 100 µM (inactive) | 69.5 µM (inactive) | 66.1 µM (inactive) | 39.5 µM (inactive) | > 100 µM (inactive)
CCOC(=O)C1C(c2ccc(OC)cc2)c2c(n[nH]c2O)CC1(C)O (centres undefined) | > 100 µM (inactive) | > 100 µM (inactive) | > 100 µM (inactive) | – | > 100 µM (inactive) | > 100 µM (inactive) | > 100 µM (inactive) | > 100 µM (inactive) | > 100 µM (inactive) | > 100 µM (inactive) | > 100 µM (inactive) | > 100 µM (inactive) | > 100 µM (inactive) | > 100 µM (inactive) | > 100 µM (inactive) | > 100 µM (inactive) | > 100 µM (inactive) | > 100 µM (inactive) | – | > 100 µM (inactive)
NS(=O)(=O)c1ccc(/N=N/c2cccnc2O)cc1 | > 100 µM (inactive) | > 100 µM (inactive) | > 100 µM (inactive) | > 100 µM (inactive) | > 100 µM (inactive) | 20.7 µM (inactive) | > 100 µM (inactive) | > 100 µM (inactive) | > 100 µM (inactive) | > 100 µM (inactive) | > 100 µM (inactive) | > 100 µM (inactive) | > 100 µM (inactive) | > 100 µM (inactive) | > 100 µM (inactive) | > 100 µM (inactive) | – | > 100 µM (inactive) | > 100 µM (inactive) | > 100 µM (inactive)
